Like-named read-outs stand apart in the source and are kept apart here. Numbered stars: 1 amine (or outer) side, 2 acyl side, 3 side chain; on linkers, the order of the positions; unused ones are H or OH. Square brackets hold non-standard residues; d marks the D form. Side chains are listed from the residue outwards. Peptide text beside a SMILES is read from it. * marks the point of attachment. C18 diacid = O=C(O)CCCCCCCCCCCCCCCCC(=O)*; γGlu = O=C(O)[C@H](CCC(=O)[*:2])N[*:1]; αMeF = C[C@](N)(Cc1ccccc1)C(=O)O; αMeK = C[C@](N)(CCCCN)C(=O)O; Lauroyl = CCCCCCCCCCCC(=O)*; αMeS = C[C@](N)(CO)C(=O)O; AEEA = NCCOCCOCC(=O)O; Aib = CC(C)(N)C(=O)O
Legend:
[1] = molecular target: porcine pancreatic trypsin (Sus scrofa, UniProt P00761); test: Proteolytic resistance to trypsin (% remaining intact peptide, RP-HPLC AUC); assay type: in vitro ADME; conditions: t = 0; 37° C., pH 7.8
Description: Trypsin: Lyophilized porcine pancreatic trypsin (Sigma: T1426) was reconstituted to afford a solution of 100 μg/mL (˜300 units/mL) in assay buffer (50 mM Tris, 10 mM CaCl2), 150 mM NaCl, 1 mM HCl, adjusted to pH 7.8) to give the enzyme stock solution. […] Ratio enzyme (units):peptide (μmoles) ˜1:11. […] Ratio enzyme (units):peptide (μ moles) ˜1.2:1.
Lyophilized porcine pancreatic trypsin (Sigma: T7409) was reconstituted to 200 μg/mL (˜300 units/mL) in assay buffer (50 mM Tris, 10 mM CaCl2), 150 mM NaCl, 1 mM HCl, adjusted to pH 7.8) to give the enzyme stock solution. […] 15 μL aliquots (˜15 μg initial peptide) of the peptide-enzyme mixture were periodically withdrawn (t=0, 30 mins, 1 hr, 2 hr, 4 hr, 8 hr, 24 hr) and quenched immediately by addition to an equal volume (15 μL) of 5% TFA (v/v) in 1:1 water/acetonitrile to arrest proteolytic activity. 20 μL aliquots (˜10 μg initial peptide) were analysed by LC/MS and/or analytical RP-HPLC as follows: LC/MS method: Agilent Polaris C8-A column (4.6×100 mm, 3 micron) eluted with a linear binary gradient of 10-90% MeCN (0.1% TFA v/v) in water (0.1% TFA v/v) over 30 mins at 1.5 mL min^−1 at ambient temperature with detection by both UV absorption at 210 nm and ionization using a Waters 3100 mass detector (ESI^+ mode). Peptide fragments deriving from enzymatic hydrolysis were identified by molecular weight, allowing location of the site of cleavage. Analytical RP-HPLC method: Agilent Polaris C8-A column (4.6×100 mm, 3 micron) eluted with a linear binary gradient of 10-90% MeCN (0.1% TFA v/v) in water (0.1% TFA v/v) over either 10 or 15 mins at 1.5 mL min^−1 at 40° C. with detection by UV absorption at 210 nm. Manual integration (AUC) allowed estimation of remaining intact peptide over the time course of the experiment.
Lyophilized porcine pancreatic trypsin (Sigma: T7409) was reconstituted to 200 μg/mL (˜300 units/mL) in assay buffer (50 mM Tris, 10 mM CaCl2), 150 mM NaCl, 1 mM HCl, adjusted to pH 7.8) to give the enzyme stock solution. […] 25 μL aliquots (˜17 μg initial peptide) of the peptide-enzyme mixture were periodically withdrawn (t=0, 30 mins, 1 hr, 2 hr, 4 hr, 8 hr, 24 hr) and quenched immediately by addition to an equal volume (25 μL) of 5% TFA (v/v) in 1:1 water/acetonitrile to arrest proteolytic activity. 25 μL aliquots (˜8 μg initial peptide) were analysed by LC/MS and/or analytical RP-HPLC as follows: LC/MS method: Agilent Polaris C8-A column (4.6×100 mm, 3 micron) eluted with a linear binary gradient of 10-90% MeCN (0.1% TFA v/v) in water (0.1% TFA v/v) over 30 mins at 1.5 mL min^−1 at ambient temperature with detection by both UV absorption at 210 nm and ionization using a Waters 3100 mass detector (ESI^+ mode). Peptide fragments deriving from enzymatic hydrolysis were identified by molecular weight, allowing location of the site of cleavage. Analytical RP-HPLC method: Agilent Polaris C8-A column (4.6×100 mm, 3 micron) eluted with a linear binary gradient of 10-90% MeCN (0.1% TFA v/v) in water (0.1% TFA v/v) over either 10 or 15 mins at 1.5 mL min^−1 at 40° C. with detection by UV absorption at 210 nm. Manual integration (AUC) allowed estimation of remaining intact peptide over the time course of the experiment.

recombinant Neprilysin = molecular target: T1, recombinant Neprilysin (Homo sapiens, UniProt P08473); test: Proteolytic resistance to neprilysin (% remaining peptide, RP-HPLC AUC); assay type: in vitro ADME; conditions: t = 0 (baseline); 37° C., pH 8.3; enzyme:peptide ~1:33 for non-lipidated, ~1:2.5 for lipidated peptides
T1 construct: purchased R&D Systems 1182-ZNC-010
Description: Ratio enzyme (units):peptide (moles) ˜1:33. […] Ratio enzyme (units):peptide (moles) ˜1:2.5.
15 μL aliquots (˜15 ng initial peptide) of the peptide-enzyme mixture were periodically withdrawn (t=0, 30 mins, 1 hr, 2 hr, 4 hr, 8 hr, 24 hr) and quenched immediately by addition to an equal volume (15 μL) of 5% TFA (v/v) in 1:1 water/acetonitrile to arrest proteolytic activity. 20 μL aliquots (˜10 ng initial peptide) were analyzed by LC/MS and/or analytical RP-HPLC as follows: LC/MS method: Agilent Polaris C8-A column (4.6×100 mm, 3 micron) eluted with a linear binary gradient of 10-90% MeCN (0.1% TFA v/v) in water (0.1% TFA v/v) over 30 mins at 1.5 mL min-1 at ambient temperature with detection by both UV absorption at 210 nm and ionization using a Waters 3100 mass detector (ESI+ mode). Peptide fragments deriving from enzymatic hydrolysis were identified by molecular weight, allowing location of the site of cleavage. Analytical RP-HPLC method: Agilent Polaris C8-A column (4.6×100 mm, 3 micron) eluted with a linear binary gradient of 10-90% MeCN (0.1% TFA v/v) in water (0.1% TFA v/v) over either 10 or 15 mins at 1.5 mL min^−1 at 40° C. with detection by UV absorption at 210 nm. Manual integration (AUC) allowed estimation of remaining intact peptide over the time course of the experiment.
25 μL aliquots (˜6 μg initial peptide) were analyzed by LC/MS and/or analytical RP-HPLC as follows: LC/MS method: Agilent Polaris C8-A column (4.6×100 mm, 3 micron) eluted with a linear binary gradient of 10-90% MeCN (0.1% TFA v/v) in water (0.1% TFA v/v) over 30 mins at 1.5 mL min^−1 at ambient temperature with detection by both UV absorption at 210 nm and ionization using a Waters 3100 mass detector (ESI^+ mode). Peptide fragments deriving from enzymatic hydrolysis were identified by molecular weight, allowing location of the site of cleavage. Analytical RP-HPLC method: Agilent Polaris C8-A column (4.6×100 mm, 3 micron) eluted with a linear binary gradient of 10-90% MeCN (0.1% TFA v/v) in water (0.1% TFA v/v) over either 10 or 15 mins at 1.5 mL min^−1 at 40° C. with detection by UV absorption at 210 nm. Manual integration (AUC) allowed estimation of remaining intact peptide over the time course of the experiment.

[2] = molecular target: T2, porcine pancreatic pepsin (Sus scrofa, UniProt P00791); test: Proteolytic resistance to pepsin (% remaining intact peptide, RP-HPLC AUC); assay type: in vitro ADME; conditions: t = 0; 37° C., pH 2.0
T2 construct: purchased Sigma P7012
Description: Pepsin: Lyophilized porcine pancreatic pepsin (Sigma: P7012) was reconstituted to afford a solution of 200 μg/mL (˜500 units/mL) in assay buffer (0.1 M HCl, pH 2.0) to give the enzyme stock solution. […] Ratio enzyme (units):peptide (moles) ˜1:6. […] Ratio enzyme (units):peptide (μmoles) ˜2:1.
Lyophilized porcine pancreatic pepsin (Sigma: P7012) was reconstituted to […] (˜500 units/mL) in assay buffer ([…], pH 2.0) to give the enzyme stock solution.

[3] = molecular target: T3, human glucagon receptor (GCGR) (Homo sapiens, UniProt P47871); test: cAMP assay, human GCGR cells; assay type: cell-based
T3 construct: expressed in transfected cells; host or cells: HEK293 cells or CHO cells
Summary of the method: (§1)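 Peptide-stimulated cAMP measured by two-step HTRF after a 30 min room-temperature incubation with receptor-expressing cells (hGLP-1R, hGIPR at 1×10^5 cells/ml; hGCGR at 2×10^5 cells/ml). Duplicate dilutions; EC50 from 4-parameter logistic fit of % Delta F.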

GLP-1R (INS1e cells) = molecular target: T4, GLP-1R (INS1e cells) (Rattus norvegicus, UniProt P32301); test: INS1e assay, cAMP activity at GLP-1R; assay type: cell-based
T4 construct: endogenous in cells; host or cells: INS1e cells
T4 sequence (P32301 22-463): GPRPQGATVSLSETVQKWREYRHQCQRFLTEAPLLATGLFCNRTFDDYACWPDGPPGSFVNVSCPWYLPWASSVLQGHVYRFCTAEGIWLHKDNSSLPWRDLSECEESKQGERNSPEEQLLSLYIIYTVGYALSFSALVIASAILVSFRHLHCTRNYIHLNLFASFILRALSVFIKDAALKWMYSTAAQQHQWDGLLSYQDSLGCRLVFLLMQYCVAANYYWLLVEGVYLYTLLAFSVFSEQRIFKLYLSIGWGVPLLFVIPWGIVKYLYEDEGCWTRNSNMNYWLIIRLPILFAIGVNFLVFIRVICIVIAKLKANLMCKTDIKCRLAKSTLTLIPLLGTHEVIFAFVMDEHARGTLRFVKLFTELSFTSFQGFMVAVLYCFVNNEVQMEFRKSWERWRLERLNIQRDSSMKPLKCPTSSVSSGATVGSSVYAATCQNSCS

[4] = molecular target: T5, human glucose-dependent insulinotropic peptide receptor (GIPR) (Homo sapiens, UniProt P48546); test: cAMP assay, human GIPR cells; assay type: cell-based
T5 construct: expressed in transfected cells; host or cells: HEK293 cells or CHO cells
T5 sequence (P48546 22-466): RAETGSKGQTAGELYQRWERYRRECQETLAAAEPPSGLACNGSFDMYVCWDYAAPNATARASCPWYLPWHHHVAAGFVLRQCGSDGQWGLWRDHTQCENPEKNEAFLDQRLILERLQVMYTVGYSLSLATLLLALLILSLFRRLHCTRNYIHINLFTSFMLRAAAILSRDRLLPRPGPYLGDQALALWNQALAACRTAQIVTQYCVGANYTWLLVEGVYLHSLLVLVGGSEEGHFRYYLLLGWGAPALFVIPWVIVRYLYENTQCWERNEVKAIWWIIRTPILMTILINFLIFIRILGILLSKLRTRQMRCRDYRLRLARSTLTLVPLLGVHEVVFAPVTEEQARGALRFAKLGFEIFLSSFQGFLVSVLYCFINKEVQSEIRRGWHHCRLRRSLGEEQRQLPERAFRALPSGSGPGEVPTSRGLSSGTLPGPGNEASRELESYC
Summary of the method: as §1

[5] = molecular target: T6, human GLP-1 receptor (GLP-1R) (Homo sapiens, UniProt P43220); test: cAMP assay, human GLP-1R cells; assay type: cell-based
T6 construct: expressed in transfected cells; host or cells: HEK293 cells or CHO cells
Summary of the method: as §1

[6] = Table 9, bis-lipidated peptides, first replicate, read-out: Primary assay EC50 Gluc-R (n1)
[7] = Table 9, bis-lipidated peptides, second replicate, read-out: Primary assay EC50 Gluc-R (n2)
[8] = Table 10, bis-lipidated peptides, mean of n1 and n2, read-out: INS1e assay EC50 Mean pM GLP-1R
[9] = Table 10, bis-lipidated peptides, replicate n1, read-out: INS1e assay EC50 GLP-1R n1
[10] = Table 10, bis-lipidated peptides, replicate n2, read-out: INS1e assay EC50 GLP-1R n2
[11] = Table 9, bis-lipidated peptides, first replicate, read-out: Primary assay EC50 GIP-R (n1)
[12] = Table 9, bis-lipidated peptides, second replicate, read-out: Primary assay EC50 GIP-R (n2)
[13] = Table 9, bis-lipidated peptides, mean of n1 and n2, read-out: Primary assay EC50 Mean pM GLP-1R
[14] = Table 9, bis-lipidated peptides, replicate n1, read-out: Primary assay EC50 GLP-1R n1
[15] = Table 9, bis-lipidated peptides, replicate n2, read-out: Primary assay EC50 GLP-1R n2

T6 sequence (P43220 24-463): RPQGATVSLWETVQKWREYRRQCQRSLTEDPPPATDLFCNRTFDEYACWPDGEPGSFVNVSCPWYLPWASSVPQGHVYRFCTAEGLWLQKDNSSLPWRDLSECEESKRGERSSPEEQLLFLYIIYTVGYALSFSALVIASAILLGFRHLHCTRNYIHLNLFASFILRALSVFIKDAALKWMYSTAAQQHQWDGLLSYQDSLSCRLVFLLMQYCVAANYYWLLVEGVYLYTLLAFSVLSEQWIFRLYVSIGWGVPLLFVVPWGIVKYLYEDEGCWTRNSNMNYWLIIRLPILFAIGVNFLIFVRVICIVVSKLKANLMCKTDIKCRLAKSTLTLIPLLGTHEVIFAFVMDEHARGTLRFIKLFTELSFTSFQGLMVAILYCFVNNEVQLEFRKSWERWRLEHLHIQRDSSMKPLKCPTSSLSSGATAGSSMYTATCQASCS
T3 sequence (P47871 26-477): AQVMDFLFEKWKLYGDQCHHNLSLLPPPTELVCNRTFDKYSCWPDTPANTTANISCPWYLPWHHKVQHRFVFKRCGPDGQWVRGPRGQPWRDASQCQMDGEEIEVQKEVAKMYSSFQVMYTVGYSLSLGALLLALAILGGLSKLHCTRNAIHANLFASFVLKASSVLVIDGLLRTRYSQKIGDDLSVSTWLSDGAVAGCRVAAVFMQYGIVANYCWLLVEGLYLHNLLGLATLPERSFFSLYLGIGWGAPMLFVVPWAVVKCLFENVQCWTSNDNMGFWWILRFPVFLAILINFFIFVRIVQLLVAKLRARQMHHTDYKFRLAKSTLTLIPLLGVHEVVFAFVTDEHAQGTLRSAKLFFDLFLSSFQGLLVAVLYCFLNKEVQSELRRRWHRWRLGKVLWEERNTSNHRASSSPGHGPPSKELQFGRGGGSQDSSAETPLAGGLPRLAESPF
porcine pancreatic trypsin, sequence (P00761 9-231): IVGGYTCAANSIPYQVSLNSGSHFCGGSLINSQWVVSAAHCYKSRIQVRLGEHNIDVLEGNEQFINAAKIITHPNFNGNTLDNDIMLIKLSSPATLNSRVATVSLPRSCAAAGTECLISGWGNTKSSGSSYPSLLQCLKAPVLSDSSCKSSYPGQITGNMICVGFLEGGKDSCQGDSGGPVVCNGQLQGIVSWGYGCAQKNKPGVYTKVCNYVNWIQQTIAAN
T1 sequence (P08473 whole entry): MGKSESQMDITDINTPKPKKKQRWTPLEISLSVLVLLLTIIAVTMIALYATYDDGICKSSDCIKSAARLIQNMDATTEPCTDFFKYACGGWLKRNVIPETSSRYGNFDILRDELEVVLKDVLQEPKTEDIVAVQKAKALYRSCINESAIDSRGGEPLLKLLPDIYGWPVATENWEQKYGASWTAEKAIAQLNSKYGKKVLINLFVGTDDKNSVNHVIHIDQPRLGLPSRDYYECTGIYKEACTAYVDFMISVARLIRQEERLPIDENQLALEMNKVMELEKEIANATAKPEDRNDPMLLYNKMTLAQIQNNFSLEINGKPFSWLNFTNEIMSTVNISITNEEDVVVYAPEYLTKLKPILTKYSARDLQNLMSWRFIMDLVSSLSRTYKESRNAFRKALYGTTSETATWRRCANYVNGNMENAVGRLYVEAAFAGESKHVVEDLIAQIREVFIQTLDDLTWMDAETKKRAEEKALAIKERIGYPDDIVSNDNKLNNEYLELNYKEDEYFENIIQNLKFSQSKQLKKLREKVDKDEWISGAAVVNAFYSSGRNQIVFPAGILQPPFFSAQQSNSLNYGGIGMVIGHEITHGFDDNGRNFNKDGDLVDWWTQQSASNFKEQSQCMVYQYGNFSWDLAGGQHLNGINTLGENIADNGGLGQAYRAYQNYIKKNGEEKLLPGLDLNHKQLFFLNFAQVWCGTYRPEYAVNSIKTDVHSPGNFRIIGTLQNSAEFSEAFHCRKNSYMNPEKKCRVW
T2 sequence (P00791 60-385): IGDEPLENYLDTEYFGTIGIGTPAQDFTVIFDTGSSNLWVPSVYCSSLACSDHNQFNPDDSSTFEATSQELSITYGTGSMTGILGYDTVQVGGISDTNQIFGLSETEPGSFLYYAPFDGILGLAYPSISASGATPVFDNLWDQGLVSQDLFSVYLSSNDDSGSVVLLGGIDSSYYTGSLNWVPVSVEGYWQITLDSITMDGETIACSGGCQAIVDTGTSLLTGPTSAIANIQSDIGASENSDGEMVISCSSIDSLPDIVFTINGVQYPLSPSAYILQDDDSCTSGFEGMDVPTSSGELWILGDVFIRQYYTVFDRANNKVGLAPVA

Row | Compound | EC50 [3, 6] | EC50 [3, 7] | EC50 (GLP-1R (INS1e cells); [8]) | EC50 (GLP-1R (INS1e cells); [9]) | EC50 (GLP-1R (INS1e cells); [10]) | EC50 [4, 11] | EC50 [4, 12] | EC50 [5, 13] | EC50 [5, 14] | EC50 [5, 15] | other results
1 | CC[C@H](C)[C@H](NC(=O)[C@H](Cc1ccccc1)NC(=O)[C@H](CCC(=O)O)NC(=O)[C@](C)(CCCCN)NC(=O)[C@H](C)NC(=O)[C@H](C)NC(=O)[C@H](CCC(=O)O)NC(=O)CNC(=O)[C@H](CCC(=O)O)NC(=O)[C@H](CC(C)C)NC(=O)[C@](C)(Cc1ccccc1)NC(=O)[C@H](CO)NC(=O)[C@](C)(CO)NC(=O)[C@@H](NC(=O)[C@H](CC(=O)O)NC(=O)[C@H](CO)NC(=O)[C@@H](NC(=O)[C@](C)(Cc1ccccc1)NC(=O)[C@H](CO)NC(=O)CNC(=O)[C@H](CCC(=O)O)NC(=O)C(C)(C)NC(=O)[C@@H](N)Cc1c[nH]cn1)[C@@H](C)O)C(C)C)C(=O)N[C@@H](CCCCNC(=O)COCCOCCNC(=O)COCCOCCNC(=O)CC[C@H](NC(=O)CCCCCCCCCCCCCCCCC(=O)O)C(=O)O)C(=O)N[C@@H](Cc1c[nH]c2ccccc12)C(=O)N[C@H](C(=O)N[C@H](C(=O)N[C@@H](CCC(=O)O)C(=O)NCC(=O)NCC(N)=O)C(C)C)C(C)C [compound 68] (H-H[Aib]EGS[αMeF]TSDV[αMeS]S[αMeF]LEGEAA[αMeK]EFIK([AEEA-AEEA-γGlu-C18 diacid])WVVEGG-NH2; N-terminus assumed) | – | – | – | – | – | – | – | – | – | – | Percentage remaining intact peptide (AUC by RP-HPLC) upon incubation with trypsin [1]: 100.0%; Percentage remaining peptide (AUC at specified time-point by RP-HPLC) upon incubation with neprilysin, t = 0 (recombinant Neprilysin): 100%; Percentage remaining intact peptide (AUC by RP-HPLC) upon incubation with pepsin [2]: 100%
2 | CC[C@H](C)[C@H](NC(=O)[C@](C)(Cc1ccccc1)NC(=O)[C@H](CCC(=O)O)NC(=O)[C@](C)(CCCCN)NC(=O)[C@H](C)NC(=O)[C@H](C)NC(=O)[C@H](CCC(=O)O)NC(=O)CNC(=O)[C@H](CCC(=O)O)NC(=O)[C@H](CC(C)C)NC(=O)[C@](C)(Cc1ccccc1)NC(=O)[C@H](CO)NC(=O)[C@](C)(CO)NC(=O)[C@@H](NC(=O)[C@H](CC(=O)O)NC(=O)[C@H](CO)NC(=O)[C@@H](NC(=O)[C@](C)(Cc1ccccc1)NC(=O)[C@H](CO)NC(=O)CNC(=O)[C@H](CCC(=O)O)NC(=O)C(C)(C)NC(=O)[C@@H](N)Cc1c[nH]cn1)[C@@H](C)O)C(C)C)C(=O)N[C@@H](C)C(=O)N[C@@](C)(Cc1ccccc1)C(=O)N[C@H](C(=O)N[C@H](C(=O)N[C@@H](CCCCNC(=O)COCCOCCNC(=O)COCCOCCNC(=O)COCCOCCNC(=O)CCCCCCCCCCCCCCCCC(=O)O)C(=O)NCC(=O)NCC(N)=O)C(C)C)C(C)C [compound 199] | – | – | – | – | – | – | – | – | – | – | EC50 ([3]; second replicate (n2), read-out: Primary assay EC50 Gluc-R): ≥ 25 nM; EC50 (GLP-1R (INS1e cells); Table 8, substituted and mono-lipidated peptides, mean of n1 and n2, read-out: INS1e assay EC50 Mean pM GLP-1R): 1460 pM; EC50 (GLP-1R (INS1e cells); Table 8, substituted and mono-lipidated peptides, replicate n1, read-out: INS1e assay EC50 GLP-1R n1): 787 pM; EC50 (GLP-1R (INS1e cells); Table 8, substituted and mono-lipidated peptides, replicate n2, read-out: INS1e assay EC50 GLP-1R n2): 2130 pM; EC50 ([4]; first replicate, read-out: Primary assay EC50 GIP-R): ≥ 25 nM; EC50 ([4]; second replicate (n2), read-out: Primary assay EC50 GIP-R): ≥ 25 nM; EC50 ([5]; mean of n1 and n2, read-out: Mean pM GLP-1R): 18.3 pM; EC50 ([5]; replicate n1, read-out: Primary assay EC50 GLP-1R n1): 29 pM; EC50 ([5]; replicate n2, read-out: Primary assay EC50 GLP-1R n2): 7.5 pM
3 | CCCCCCCCCCCC(=O)N[C@@H](CCC(=O)NCCOCCOCC(=O)NCCOCCOCC(=O)NCCCC[C@H](NC(=O)[C@H](CO)NC(=O)[C@](C)(CO)NC(=O)[C@@H](NC(=O)[C@H](CC(=O)O)NC(=O)[C@H](CO)NC(=O)[C@@H](NC(=O)[C@](C)(Cc1ccccc1)NC(=O)[C@H](CO)NC(=O)CNC(=O)[C@H](CCC(=O)O)NC(=O)C(C)(C)NC(=O)[C@@H](N)Cc1c[nH]cn1)[C@@H](C)O)C(C)C)C(=O)N[C@@H](CC(C)C)C(=O)N[C@@H](CCC(=O)O)C(=O)NCC(=O)N[C@@H](CCC(=O)O)C(=O)N[C@@H](C)C(=O)N[C@@H](C)C(=O)N[C@@](C)(CCCCN)C(=O)N[C@@H](CCC(=O)O)C(=O)N[C@@H](Cc1ccccc1)C(=O)N[C@H](C(=O)N[C@@H](C)C(=O)N[C@@H](Cc1c[nH]c2ccccc12)C(=O)N[C@@H](CCCCNC(=O)COCCOCCNC(=O)COCCOCCNC(=O)CC[C@H](NC(=O)CCCCCCCCCCC)C(=O)O)C(=O)N[C@H](C(=O)N[C@@H](CCC(=O)O)C(=O)NCC(=O)NCC(N)=O)C(C)C)[C@@H](C)CC)C(=O)O [compound 264] (H-H[Aib]EGS[αMeF]TSDV[αMeS]SK([AEEA-AEEA-γGlu-Lauroyl])LEGEAA[αMeK]EFIAWK([AEEA-AEEA-γGlu-Lauroyl])VEGG-NH2; N-terminus assumed) | ≥ 22.6 nM | ≥ 22.6 nM | 1030 pM | 963 pM | 1100 pM | ≥ 22.6 nM | ≥ 22.6 nM | 12.8 pM | 18.2 pM | 7.37 pM | –
4 | CCCCCCCCCCCC(=O)N[C@@H](CCC(=O)NCCOCCOCC(=O)NCCOCCOCC(=O)NCCCC[C@H](NC(=O)[C@H](Cc1ccc(O)cc1)NC(=O)[C@H](CO)NC(=O)[C@](C)(CO)NC(=O)[C@@H](NC(=O)[C@H](CC(=O)O)NC(=O)[C@H](CO)NC(=O)[C@@H](NC(=O)[C@](C)(Cc1ccccc1)NC(=O)[C@H](CO)NC(=O)CNC(=O)[C@H](CCC(=O)O)NC(=O)C(C)(C)NC(=O)[C@@H](N)Cc1c[nH]cn1)[C@@H](C)O)C(C)C)C(=O)N[C@@H](CCC(=O)O)C(=O)NCC(=O)N[C@@H](CCC(=O)O)C(=O)N[C@@H](C)C(=O)N[C@@H](C)C(=O)N[C@@](C)(CCCCN)C(=O)N[C@@H](CCC(=O)O)C(=O)N[C@@H](Cc1ccccc1)C(=O)N[C@H](C(=O)N[C@@H](CCCCNC(=O)COCCOCCNC(=O)COCCOCCNC(=O)CC[C@H](NC(=O)CCCCCCCCCCC)C(=O)O)C(=O)N[C@@H](Cc1c[nH]c2ccccc12)C(=O)N[C@H](C(=O)N[C@H](C(=O)N[C@@H](CCC(=O)O)C(=O)NCC(=O)NCC(N)=O)C(C)C)C(C)C)[C@@H](C)CC)C(=O)O [compound 268] (H-H[Aib]EGS[αMeF]TSDV[αMeS]SYK([AEEA-AEEA-γGlu-Lauroyl])EGEAA[αMeK]EFIK([AEEA-AEEA-γGlu-Lauroyl])WVVEGG-NH2; N-terminus assumed) | ≥ 22.2 nM | ≥ 22.2 nM | 1160 pM | 1090 pM | 1230 pM | ≥ 22.2 nM | ≥ 22.2 nM | 4.8 pM | 4.46 pM | 5.05 pM | –
